# What was measured:
# Assay type in all cases: in vivo
# [1] = test system: ORYZA SATIVA, L. CV. KOSHIHIKARI; experiment: Post-transplant rice evaluation under flooded paddy conditions (Example 43), ORYSAK (Rice, Koshihikari); set-up: key: visual rating on a 0-9 scale, compared with control; settings: applied three days after transplanting rice, 25 to 30 days after treatment
# Protocol: (§1) Results of herbicide evaluation are expressed on a rating scale (0-9). The scale is based upon a visual observation of plant stand, vigor, malformation, size, chlorosis and overall plant appearance as compared with a control.
# (§2) In this example, Deluvian paddy soil (Toyokawa paddy soil) is placed in plastic pots, 100cm^2 x 9 cm in depth. Water is added to the level of the soil surface in the pot and the mixture is paddled 3 cm in depth.
# (§3) Pots are then variously sown with monocotyledenous weed seeds and tubers at 0-2 cm in soil depth, as well as transplanted rice plants at the 2.5 leaf stage. The rice plants are transplanted at about 3 cm soil depth. Water is then added to all of the pots to 3 cm deep and kept at a depth of 3 cm for the duration of the test. Test compounds are applied in the manner described in Example 42 three days after transplanting the rice plants and sowing the weed seeds and tubers. The pots are then placed on greenhouse benches and cared for in the conventional manner. Tests are examined at 25 to 30 days after treatment and rated according to the rating system provided in Example 40. The compounds evaluated are reported by compound number given in Example 40.
# ECHINOCHLOA CRUS-GALLI = experiment: Preemergence evaluation in the presence of transplanted rice under flooded paddy conditions (Example 43), ECHCG (Barnyard Grass); set-up: key: visual rating on a 0-9 scale, compared with control; settings: applied three days after sowing, 25 to 30 days after treatment
# Protocol: as §1, §2, §3
# […] = Preemergence evaluation in the presence of transplanted rice under flooded paddy conditions (Example 43), MOOVA (Monochoria); settings: applied three days after sowing, 25 to 30 days after treatment
# Protocol: as §1, §2, §3
# SAGITTARIA PYGMAEA = experiment: Preemergence evaluation in the presence of transplanted rice under flooded paddy conditions (Example 43), SAGPY (Arrowhead (Pygmaea)); set-up: key: visual rating on a 0-9 scale, compared with control; settings: applied three days after sowing, 25 to 30 days after treatment
# Protocol: as §1, §2, §3
# SCIRPUS JUNCOIDES = experiment: Preemergence evaluation in the presence of transplanted rice under flooded paddy conditions (Example 43), SCPJU (Bulrush, Japanese); set-up: key: visual rating on a 0-9 scale, compared with control; settings: applied three days after sowing, 25 to 30 days after treatment
# Protocol: as §1, §2, §3
# [2] = test system: TRITICUM AESTIVUM, CV. APOLLO; experiment: Preemergence herbicidal evaluation, TRZAWO (Wheat, Winter, CV. APOLLO); settings: four to five weeks after treatment
# In short: (§4)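 Preemergence, greenhouse: seed + potting soil sown on ~1 inch soil in cups; aqueous acetone spray, ~0.125–0.50 kg/ha equivalent; rated 0-9 vs control at 4–5 wk.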
# CYPERUS DIFFORMIS = experiment: Preemergence evaluation in the presence of transplanted rice under flooded paddy conditions (Example 43), CYPDI (Flatsedge, smallflower); set-up: key: visual rating on a 0-9 scale, compared with control; settings: applied three days after sowing, 25 to 30 days after treatment
# Protocol: as §1, §2, §3
# [3] = test system: ABUTILON THEOPHRASTI, MEDIC.; experiment: Preemergence herbicidal evaluation, ABUTH (Velvetleaf); settings: four to five weeks after treatment
# In short: as §4
# [4] = test system: ECHINOCHLOA CRUS-GALLI, (L) BEAU; experiment: Preemergence herbicidal evaluation, ECHCG (Barnyardgrass); settings: four to five weeks after treatment
# In short: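 Barnyardgrass seeds were mixed with potting soil and planted on about one inch of soil in pint cups for preemergence testing. Treated cups were kept on greenhouse benches, watered and maintained by standard greenhouse practice. After four to five weeks, each cup was visually rated on a 0-9 scale against an untreated control.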
# CYPERUS SEROTINUS = experiment: Preemergence evaluation in the presence of transplanted rice under flooded paddy conditions (Example 43), CYPSE (Flatsedge, perennial); set-up: key: 0-9 visual rating scale vs. untreated control; settings: applied three days after sowing, 25 to 30 days after treatment
# Protocol: as §1, §2, §3
compound,measurement,setting,value
"COC(=O)Cn1c(=O)[nH]c(=O)n(-c2cc(Oc3ccc(C(F)(F)F)cc3Cl)ccc2[N+](=O)[O-])c1=O [Compound 8, Methyl 3-{5-[(2-chloro-α,α,α-trifluoro-p-tolyl)oxy]-2-nitrophenyl}tetrahydro-2,4,6-trioxo-s-triazine-1(2H)-acetate]","Herbicidal effect rating, ORYSAK",[1]; 0.032 kg/ha,2.0
same,"Herbicidal effect rating, ORYSAK",[1]; 0.063 kg/ha,3.0
same,"Herbicidal effect rating, ORYSAK",[1]; 0.125 kg/ha,2.0
same,"Herbicidal effect rating, ORYSAK",[1]; 0.250 kg/ha,6.0
same,"Herbicidal effect rating, ECHCG",ECHINOCHLOA CRUS-GALLI; 0.032 kg/ha,8.0
same,"Herbicidal effect rating, ECHCG",ECHINOCHLOA CRUS-GALLI; 0.063 kg/ha,8.0
same,"Herbicidal effect rating, ECHCG",ECHINOCHLOA CRUS-GALLI; 0.125 kg/ha,9.0
same,"Herbicidal effect rating, ECHCG",ECHINOCHLOA CRUS-GALLI; 0.250 kg/ha,9.0
same,"Herbicidal effect rating, MOOVA",[…]; 0.032 kg/ha,7.0
same,"Herbicidal effect rating, MOOVA",[…]; 0.063 kg/ha,9.0
same,"Herbicidal effect rating, MOOVA",[…]; 0.125 kg/ha,9.0
same,"Herbicidal effect rating, MOOVA",[…]; 0.250 kg/ha,9.0
same,"Herbicidal effect rating, SAGPY",SAGITTARIA PYGMAEA; 0.032 kg/ha,1.0
same,"Herbicidal effect rating, SAGPY",SAGITTARIA PYGMAEA; 0.063 kg/ha,3.0
same,"Herbicidal effect rating, SAGPY",SAGITTARIA PYGMAEA; 0.125 kg/ha,6.0
same,"Herbicidal effect rating, SAGPY",SAGITTARIA PYGMAEA; 0.250 kg/ha,8.0
same,"Herbicidal effect rating, SCPJU",SCIRPUS JUNCOIDES; 0.032 kg/ha,1.0
same,"Herbicidal effect rating, SCPJU",SCIRPUS JUNCOIDES; 0.063 kg/ha,5.0
same,"Herbicidal effect rating, SCPJU",SCIRPUS JUNCOIDES; 0.125 kg/ha,7.0
same,"Herbicidal effect rating, SCPJU",SCIRPUS JUNCOIDES; 0.250 kg/ha,8.0
same,TRZAWO rating,[2]; Rate 0.125 kg/ha,3.0
same,TRZAWO rating,[2]; Rate 0.250 kg/ha,3.0
same,TRZAWO rating,[2]; Rate 0.500 kg/ha,3.0
same,"Herbicidal effect rating, CYPDI",CYPERUS DIFFORMIS; 0.032 kg/ha,7.0
same,"Herbicidal effect rating, CYPDI",CYPERUS DIFFORMIS; 0.063 kg/ha,9.0
same,"Herbicidal effect rating, CYPDI",CYPERUS DIFFORMIS; 0.125 kg/ha,9.0
same,"Herbicidal effect rating, CYPDI",CYPERUS DIFFORMIS; 0.250 kg/ha,9.0
same,ABUTH rating,[3]; Rate 0.125 kg/ha,9.0
same,ABUTH rating,[3]; Rate 0.250 kg/ha,9.0
same,ABUTH rating,[3]; Rate 0.500 kg/ha,9.0
same,ECHCG rating,[4]; Rate 0.125 kg/ha,0.0
same,ECHCG rating,[4]; Rate 0.250 kg/ha,0.0
same,ECHCG rating,[4]; Rate 0.500 kg/ha,0.0
"COC(=O)Cn1c(=O)n(C)c(=O)n(-c2cc(Oc3ccc(C(F)(F)F)cc3Cl)ccc2[N+](=O)[O-])c1=O [Compound 3, Methyl 3-{5-[(2-chloro-α,α,α-trifluoro-p-tolyl)oxy]-2-nitrophenyl}tetrahydro-5-methyl-2,4,6-trioxo-s-triazine-1(2H)-acetate]","Herbicidal effect rating, ORYSAK",[1]; 0.025 kg/ha,0.0
same,"Herbicidal effect rating, ORYSAK",[1]; 0.050 kg/ha,1.0
same,"Herbicidal effect rating, ORYSAK",[1]; 0.100 kg/ha,5.0
same,"Herbicidal effect rating, ORYSAK",[1]; 0.250 kg/ha,8.0
same,"Herbicidal effect rating, ECHCG",ECHINOCHLOA CRUS-GALLI; 0.025 kg/ha,8.0
same,"Herbicidal effect rating, ECHCG",ECHINOCHLOA CRUS-GALLI; 0.050 kg/ha,9.0
same,"Herbicidal effect rating, ECHCG",ECHINOCHLOA CRUS-GALLI; 0.100 kg/ha,9.0
same,"Herbicidal effect rating, ECHCG",ECHINOCHLOA CRUS-GALLI; 0.250 kg/ha,9.0
same,"Herbicidal effect rating, MOOVA",[…]; 0.025 kg/ha,3.0
same,"Herbicidal effect rating, MOOVA",[…]; 0.050 kg/ha,5.0
same,"Herbicidal effect rating, MOOVA",[…]; 0.100 kg/ha,7.0
same,"Herbicidal effect rating, MOOVA",[…]; 0.250 kg/ha,9.0
same,"Herbicidal effect rating, SAGPY",SAGITTARIA PYGMAEA; 0.025 kg/ha,0.0
same,"Herbicidal effect rating, SAGPY",SAGITTARIA PYGMAEA; 0.050 kg/ha,0.0
same,"Herbicidal effect rating, SAGPY",SAGITTARIA PYGMAEA; 0.100 kg/ha,1.0
same,"Herbicidal effect rating, SAGPY",SAGITTARIA PYGMAEA; 0.250 kg/ha,3.0
same,"Herbicidal effect rating, SCPJU",SCIRPUS JUNCOIDES; 0.025 kg/ha,5.0
same,"Herbicidal effect rating, SCPJU",SCIRPUS JUNCOIDES; 0.050 kg/ha,7.0
same,"Herbicidal effect rating, SCPJU",SCIRPUS JUNCOIDES; 0.100 kg/ha,9.0
same,"Herbicidal effect rating, SCPJU",SCIRPUS JUNCOIDES; 0.250 kg/ha,9.0
same,"Herbicidal effect rating, CYPSE",CYPERUS SEROTINUS; 0.025 kg/ha,0.0
same,"Herbicidal effect rating, CYPSE",CYPERUS SEROTINUS; 0.050 kg/ha,5.0
same,"Herbicidal effect rating, CYPSE",CYPERUS SEROTINUS; 0.100 kg/ha,8.0
same,"Herbicidal effect rating, CYPSE",CYPERUS SEROTINUS; 0.250 kg/ha,9.0
same,"Herbicidal effect rating, CYPDI",CYPERUS DIFFORMIS; 0.025 kg/ha,5.0
same,"Herbicidal effect rating, CYPDI",CYPERUS DIFFORMIS; 0.050 kg/ha,8.0
same,"Herbicidal effect rating, CYPDI",CYPERUS DIFFORMIS; 0.100 kg/ha,9.0
same,"Herbicidal effect rating, CYPDI",CYPERUS DIFFORMIS; 0.250 kg/ha,9.0
"COC(=O)Cn1c(=O)n(C)c(=O)n(-c2cc(Oc3c(F)cc(C(F)(F)F)cc3Cl)ccc2Br)c1=O [Compound 2, Methyl 3-{2-bromo-5-[(2-chloro-α,α,α,6-tetrafluoro-p-tolyl)oxy]phenyl}tetrahydro-5-methyl-2,4,6-trioxo-s-triazine-1(2H)-acetate]","Herbicidal effect rating, ORYSAK",[1]; 0.025 kg/ha,1.0
same,"Herbicidal effect rating, ORYSAK",[1]; 0.050 kg/ha,3.0
same,"Herbicidal effect rating, ORYSAK",[1]; 0.100 kg/ha,5.0
same,"Herbicidal effect rating, ORYSAK",[1]; 0.250 kg/ha,9.0
same,"Herbicidal effect rating, ECHCG",ECHINOCHLOA CRUS-GALLI; 0.025 kg/ha,9.0
same,"Herbicidal effect rating, ECHCG",ECHINOCHLOA CRUS-GALLI; 0.050 kg/ha,9.0
same,"Herbicidal effect rating, ECHCG",ECHINOCHLOA CRUS-GALLI; 0.100 kg/ha,9.0
same,"Herbicidal effect rating, ECHCG",ECHINOCHLOA CRUS-GALLI; 0.250 kg/ha,9.0
same,"Herbicidal effect rating, MOOVA",[…]; 0.025 kg/ha,9.0
same,"Herbicidal effect rating, MOOVA",[…]; 0.050 kg/ha,9.0
same,"Herbicidal effect rating, MOOVA",[…]; 0.100 kg/ha,9.0
same,"Herbicidal effect rating, MOOVA",[…]; 0.250 kg/ha,9.0
same,"Herbicidal effect rating, SAGPY",SAGITTARIA PYGMAEA; 0.025 kg/ha,3.0
same,"Herbicidal effect rating, SAGPY",SAGITTARIA PYGMAEA; 0.050 kg/ha,7.0
same,"Herbicidal effect rating, SAGPY",SAGITTARIA PYGMAEA; 0.100 kg/ha,9.0
same,"Herbicidal effect rating, SAGPY",SAGITTARIA PYGMAEA; 0.250 kg/ha,9.0
same,"Herbicidal effect rating, SCPJU",SCIRPUS JUNCOIDES; 0.025 kg/ha,8.0
same,"Herbicidal effect rating, SCPJU",SCIRPUS JUNCOIDES; 0.050 kg/ha,9.0
same,"Herbicidal effect rating, SCPJU",SCIRPUS JUNCOIDES; 0.100 kg/ha,9.0
same,"Herbicidal effect rating, SCPJU",SCIRPUS JUNCOIDES; 0.250 kg/ha,9.0
same,"Herbicidal effect rating, CYPSE",CYPERUS SEROTINUS; 0.025 kg/ha,4.0
same,"Herbicidal effect rating, CYPSE",CYPERUS SEROTINUS; 0.050 kg/ha,7.0
same,"Herbicidal effect rating, CYPSE",CYPERUS SEROTINUS; 0.100 kg/ha,9.0
same,"Herbicidal effect rating, CYPSE",CYPERUS SEROTINUS; 0.250 kg/ha,9.0
same,"Herbicidal effect rating, CYPDI",CYPERUS DIFFORMIS; 0.025 kg/ha,9.0
same,"Herbicidal effect rating, CYPDI",CYPERUS DIFFORMIS; 0.050 kg/ha,9.0
same,"Herbicidal effect rating, CYPDI",CYPERUS DIFFORMIS; 0.100 kg/ha,9.0
same,"Herbicidal effect rating, CYPDI",CYPERUS DIFFORMIS; 0.250 kg/ha,9.0
